Test results published in article PMC9149975, “The diaryl-imidazopyridazine anti-plasmodial compound, MMV652103, exhibits anti-breast cancer activity” (EXCLI Journal, 2022).
Like-named read-outs stand apart in the source and are kept apart here.

Key:
[1] = tested on: MDA-MB-231 (TNBC) breast cancer cells; experiment: MTT cytotoxicity assay, MDA-MB-231; assay type: cell-based; conditions: Homo sapiens
Procedure: (§1) Human estrogen-receptor positive (ER+) breast adenocarcinoma cell lines, MCF7 and T47D, were maintained in Roswell Park Memorial Institute-1640 medium (Sigma Aldrich, Missouri, USA) and the human epidermal growth factor receptor 2 positive (HER2+) BT474, and triple negative (TNBC) MDA-MB-231 and MDA-MB-468 cells were maintained in Dulbecco's Modified Eagle's Medium (DMEM) (Sigma Aldrich, Missouri, USA). […]
(§2) Cells (3.5×10^3-6×10^3 / well) were seeded in 96-well plates and treated at a 60-70 % confluence with a range of concentrations (0-10 μM) of test compounds or vehicle for 48 h. Cell viability was measured using the 3-(4,5-dimethylthiazol-2-yl)-2,5-diphenyl-trazolium bromide (MTT) assay (11465007001; Sigma Aldrich) according to the manufacturer's instructions. Mean cell viability was calculated as a percentage of the mean vehicle control. A minimum of three independent experiments in quadruplicate were performed from which the IC50 was determined from sigmoidal plots using GraphPad Prism version 6.0 (GraphPad Software, California, USA). The selectivity index (SI) was determined by dividing the IC50 of a non-malignant cell line by the IC50 of a cancer cell line.

[2] = tested on: FG0 human skin fibroblasts; experiment: MTT cytotoxicity assay, FG0; assay type: cell-based; conditions: Skin fibroblast
Procedure: as §1, §2

[3] = tested on: MCF7 (breast cancer cell line); experiment: MTT cytotoxicity assay, MCF7; assay type: cell-based, human; conditions: for IC50: Homo sapiens
Source text: (§3) Human estrogen-receptor positive (ER+) breast adenocarcinoma cell lines, MCF7 and T47D, were maintained in Roswell Park Memorial Institute-1640 medium (Sigma Aldrich, Missouri, USA) and the human epidermal growth factor receptor 2 positive (HER2+) BT474, and triple negative (TNBC) MDA-MB-231 and MDA-MB-468 cells were maintained in Dulbecco's Modified Eagle's Medium (DMEM) (Sigma Aldrich, Missouri, USA). FG0 human skin fibroblasts (provided by Associate Professor Denver Hendricks, University of Cape Town) were maintained in DMEM while the normal breast epithelial cell line MCF12A was maintained in DMEM:nutrient mixture F-12 (DMEM/F12; 1:1; Sigma Aldrich, Missouri, USA), supplemented with 20 ng/ml epidermal growth factor, 100 ng/ml cholera toxin, 500 ng/ml hydrocortisone and 10 µg/ml insulin. All media were supplemented with 10 % fetal bovine serum, 100 U/ml penicillin and 100 µg/ml streptomycin. Cells were maintained at 37 °C in a 5 % CO2 and 95 % air-humidified incubator. Media was replaced every 2-3 days and cells were routinely tested for mycoplasma infection.
as §2
Briefly, the cells were treated with a range of concentrations (2 - 20 µM) of each compound or vehicle (DMSO) for 48 h and MTT assays were performed. […] Based on the promising IC50 and SI values obtained for MMV652103, it was chosen for further studies.

[4] = tested on: T47D (ER+) breast cancer cells; experiment: MTT cytotoxicity assay, T47D; assay type: cell-based, human; conditions: for IC50: Homo sapiens, T47D
Source text: as §3, §2

PIK3C3 = molecular target: T1, PIK3C3 (Homo sapiens, UniProt Q8NEB9); experiment: ADP-Glo lipid kinase assay, PIK3C3; assay type: biochemical; conditions: 10 µM compound
T1 construct: purchased Carna Biosciences Inc; Invitrogen Corporation

T47D cells = experiment: Clonogenic survival assay, T47D; assay type: cell-based, human; conditions: IC50, 2 x IC50, 4 x IC50 for 24 h
Procedure: Cells were pre-cultured and treated with the indicated concentrations of MMV652103 for 24 h, washed, collected and re-plated, in drug-free medium, at 1000-2000 cells per well in 35 mm dishes, in triplicate. After 10-21 days the surviving cells were fixed with 3:1 methanol: acetic acid and stained with 0.5 % crystal violet (Sigma-Aldrich, USA) in 100 % methanol. Quantification of colonies was performed using ImageJ 1.5J8 software (USA) (Schneider et al., 2012[73]). Number of colonies was determined for each drug concentration and expressed as a percentage of the vehicle treated control.

PIK3CB/ PIK3R1 = molecular target: T2, PIK3CB/ PIK3R1 (Homo sapiens, UniProt P42338); experiment: ADP-Glo lipid kinase assay, PIK3CB/PIK3R1; assay type: biochemical; conditions: 10 µM compound
T2 construct: purchased Carna Biosciences Inc; Invitrogen Corporation

PI4K2B = molecular target: T3, PI4K2B (Homo sapiens, UniProt Q8TCG2); experiment: ADP-Glo lipid kinase assay, PI4K2B; assay type: biochemical; conditions: 10 µM compound
T3 construct: purchased Carna Biosciences Inc; Invitrogen Corporation

MCF7 cells [5] = experiment: Cell cycle analysis by flow cytometry; assay type: cell-based, human; conditions: IC50, 24 and 48 h
Procedure: Log-phase MCF7 cells were exposed to MMV652103 for 24 and 48 h and both adherent and floating cells were collected, processed as previously described and analyzed using a Becton Dickinson FACSCalibur flow cytometer (Becton Dickinson, New Jersey, USA) with a 488 nm coherent laser (Bleloch et al., 2019[8]). The data were acquired using CellQuest Pro version 5.2.1. software (Becton Dickinson) and the analyses were done using ModFit version 2.0. software (Verity Software House Inc, Maine, USA).

PIK3CD/ PIK3R1 = molecular target: T4, PIK3CD/ PIK3R1 (Homo sapiens, UniProt O00329); experiment: ADP-Glo lipid kinase assay, PIK3CD/PIK3R1; assay type: biochemical; conditions: 10 µM compound
T4 construct: purchased Carna Biosciences Inc; Invitrogen Corporation

PIK3C2B = molecular target: T5, PIK3C2B (Homo sapiens, UniProt O00750); experiment: ADP-Glo lipid kinase assay, PIK3C2B; assay type: biochemical; conditions: 10 µM compound
T5 construct: purchased Carna Biosciences Inc; Invitrogen Corporation

[6] = Solubility in DMSO at 10 mM; assay type: physicochemical; conditions: final concentration 10 mM
MCF7 cells [7] = experiment: GSH-Glo Glutathione assay; assay type: cell-based, human; conditions: MCF7, 24 h; MMV652103 ½ IC50 and IC50, doxorubicin IC50 (9.84 nM)
Procedure: The increase in ROS levels results in a decrease in the levels of antioxidants. To confirm the presence of intracellular ROS, the levels of the antioxidant, glutathione (GSH), was measured using the GSH-Glo™ Glutathione assay kit (V6911, Promega, Wisconsin, USA), according to the manufacturer's instructions. Briefly, cells (2500-4500 cells per well) were seeded in opaque 96 well plates. Cells were treated for 24 h with either vehicle or MMV652103. Thereafter, the cell culture medium was removed and 100 μl of 1X GSH-Glo™ Reagent (prepared using Luciferin-NT substrate and Glutathione S-Transferase each diluted 1:100 in GSH-Glo™ Reaction Buffer) was added to each well. The plate was then mixed briefly on a shaker and incubated for 10 min at RT. Thereafter, 100 μl reconstituted Luciferin Detection Reagent was added to each well. The plate was then incubated for 15 min RT in order to stabilize the luminescence signal. The plate was read using the GloMax® Explorer Multimode plate reader (Promega, Wisconsin, USA).

T3 sequence (Q8TCG2 whole entry): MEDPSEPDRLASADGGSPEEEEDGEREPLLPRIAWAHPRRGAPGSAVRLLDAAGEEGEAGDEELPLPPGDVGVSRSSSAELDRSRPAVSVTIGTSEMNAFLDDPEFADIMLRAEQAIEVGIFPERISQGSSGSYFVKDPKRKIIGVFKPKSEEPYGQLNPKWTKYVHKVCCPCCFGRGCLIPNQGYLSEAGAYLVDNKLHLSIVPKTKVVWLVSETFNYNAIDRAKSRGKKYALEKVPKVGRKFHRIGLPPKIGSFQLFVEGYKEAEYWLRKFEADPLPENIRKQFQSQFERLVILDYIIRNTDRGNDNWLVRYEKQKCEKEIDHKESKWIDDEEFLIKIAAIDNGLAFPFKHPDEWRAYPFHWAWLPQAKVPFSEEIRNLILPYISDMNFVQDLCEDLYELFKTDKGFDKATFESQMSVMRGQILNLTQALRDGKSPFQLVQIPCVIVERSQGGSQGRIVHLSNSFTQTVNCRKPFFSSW
T2 sequence (P42338 whole entry): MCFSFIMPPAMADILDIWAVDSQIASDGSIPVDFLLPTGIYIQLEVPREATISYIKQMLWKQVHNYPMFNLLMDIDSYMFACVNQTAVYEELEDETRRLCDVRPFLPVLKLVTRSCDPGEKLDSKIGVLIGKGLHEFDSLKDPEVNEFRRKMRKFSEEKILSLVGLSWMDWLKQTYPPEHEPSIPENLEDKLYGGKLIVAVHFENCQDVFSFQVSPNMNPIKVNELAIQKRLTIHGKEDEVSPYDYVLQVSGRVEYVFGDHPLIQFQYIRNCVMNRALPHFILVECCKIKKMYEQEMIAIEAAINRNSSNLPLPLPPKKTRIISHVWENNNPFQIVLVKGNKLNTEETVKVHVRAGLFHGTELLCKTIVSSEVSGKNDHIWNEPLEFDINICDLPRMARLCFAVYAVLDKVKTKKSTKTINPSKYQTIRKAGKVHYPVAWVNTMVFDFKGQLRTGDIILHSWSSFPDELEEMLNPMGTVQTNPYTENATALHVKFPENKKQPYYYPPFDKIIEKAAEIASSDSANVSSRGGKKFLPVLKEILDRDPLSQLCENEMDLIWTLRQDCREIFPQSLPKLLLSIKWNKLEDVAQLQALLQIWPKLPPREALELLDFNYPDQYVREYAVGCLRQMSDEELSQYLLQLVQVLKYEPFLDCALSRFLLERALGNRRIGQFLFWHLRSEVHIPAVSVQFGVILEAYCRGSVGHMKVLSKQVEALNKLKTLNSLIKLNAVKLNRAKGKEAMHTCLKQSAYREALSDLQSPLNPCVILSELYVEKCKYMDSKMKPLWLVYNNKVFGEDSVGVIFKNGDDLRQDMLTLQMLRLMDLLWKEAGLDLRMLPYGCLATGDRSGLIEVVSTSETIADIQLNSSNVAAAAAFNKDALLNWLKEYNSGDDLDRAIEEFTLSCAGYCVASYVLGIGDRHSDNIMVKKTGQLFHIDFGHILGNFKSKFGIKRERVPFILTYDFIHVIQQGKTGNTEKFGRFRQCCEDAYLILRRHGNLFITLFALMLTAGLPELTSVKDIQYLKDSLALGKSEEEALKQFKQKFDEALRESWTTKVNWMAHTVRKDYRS
T2 sequence (P27986 whole entry partner): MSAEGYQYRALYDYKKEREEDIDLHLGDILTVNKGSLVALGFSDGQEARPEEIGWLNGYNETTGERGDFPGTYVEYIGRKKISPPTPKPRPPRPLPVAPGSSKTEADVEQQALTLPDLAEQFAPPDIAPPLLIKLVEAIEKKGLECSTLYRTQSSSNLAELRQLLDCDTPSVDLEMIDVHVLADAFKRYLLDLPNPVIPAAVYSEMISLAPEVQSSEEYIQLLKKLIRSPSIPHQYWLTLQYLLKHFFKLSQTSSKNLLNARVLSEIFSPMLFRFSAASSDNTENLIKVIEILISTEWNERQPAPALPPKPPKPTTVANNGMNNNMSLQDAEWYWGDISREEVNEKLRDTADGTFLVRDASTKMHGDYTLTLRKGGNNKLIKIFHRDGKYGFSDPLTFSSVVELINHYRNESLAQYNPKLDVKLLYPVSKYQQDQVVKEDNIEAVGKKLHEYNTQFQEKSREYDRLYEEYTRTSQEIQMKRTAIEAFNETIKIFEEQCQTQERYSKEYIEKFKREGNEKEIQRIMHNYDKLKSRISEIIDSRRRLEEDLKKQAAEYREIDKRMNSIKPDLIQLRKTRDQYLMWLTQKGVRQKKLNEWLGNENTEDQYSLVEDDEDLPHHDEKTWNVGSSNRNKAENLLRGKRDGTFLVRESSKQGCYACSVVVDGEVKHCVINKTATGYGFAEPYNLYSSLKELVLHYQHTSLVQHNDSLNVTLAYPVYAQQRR
T5 sequence (O00750 whole entry): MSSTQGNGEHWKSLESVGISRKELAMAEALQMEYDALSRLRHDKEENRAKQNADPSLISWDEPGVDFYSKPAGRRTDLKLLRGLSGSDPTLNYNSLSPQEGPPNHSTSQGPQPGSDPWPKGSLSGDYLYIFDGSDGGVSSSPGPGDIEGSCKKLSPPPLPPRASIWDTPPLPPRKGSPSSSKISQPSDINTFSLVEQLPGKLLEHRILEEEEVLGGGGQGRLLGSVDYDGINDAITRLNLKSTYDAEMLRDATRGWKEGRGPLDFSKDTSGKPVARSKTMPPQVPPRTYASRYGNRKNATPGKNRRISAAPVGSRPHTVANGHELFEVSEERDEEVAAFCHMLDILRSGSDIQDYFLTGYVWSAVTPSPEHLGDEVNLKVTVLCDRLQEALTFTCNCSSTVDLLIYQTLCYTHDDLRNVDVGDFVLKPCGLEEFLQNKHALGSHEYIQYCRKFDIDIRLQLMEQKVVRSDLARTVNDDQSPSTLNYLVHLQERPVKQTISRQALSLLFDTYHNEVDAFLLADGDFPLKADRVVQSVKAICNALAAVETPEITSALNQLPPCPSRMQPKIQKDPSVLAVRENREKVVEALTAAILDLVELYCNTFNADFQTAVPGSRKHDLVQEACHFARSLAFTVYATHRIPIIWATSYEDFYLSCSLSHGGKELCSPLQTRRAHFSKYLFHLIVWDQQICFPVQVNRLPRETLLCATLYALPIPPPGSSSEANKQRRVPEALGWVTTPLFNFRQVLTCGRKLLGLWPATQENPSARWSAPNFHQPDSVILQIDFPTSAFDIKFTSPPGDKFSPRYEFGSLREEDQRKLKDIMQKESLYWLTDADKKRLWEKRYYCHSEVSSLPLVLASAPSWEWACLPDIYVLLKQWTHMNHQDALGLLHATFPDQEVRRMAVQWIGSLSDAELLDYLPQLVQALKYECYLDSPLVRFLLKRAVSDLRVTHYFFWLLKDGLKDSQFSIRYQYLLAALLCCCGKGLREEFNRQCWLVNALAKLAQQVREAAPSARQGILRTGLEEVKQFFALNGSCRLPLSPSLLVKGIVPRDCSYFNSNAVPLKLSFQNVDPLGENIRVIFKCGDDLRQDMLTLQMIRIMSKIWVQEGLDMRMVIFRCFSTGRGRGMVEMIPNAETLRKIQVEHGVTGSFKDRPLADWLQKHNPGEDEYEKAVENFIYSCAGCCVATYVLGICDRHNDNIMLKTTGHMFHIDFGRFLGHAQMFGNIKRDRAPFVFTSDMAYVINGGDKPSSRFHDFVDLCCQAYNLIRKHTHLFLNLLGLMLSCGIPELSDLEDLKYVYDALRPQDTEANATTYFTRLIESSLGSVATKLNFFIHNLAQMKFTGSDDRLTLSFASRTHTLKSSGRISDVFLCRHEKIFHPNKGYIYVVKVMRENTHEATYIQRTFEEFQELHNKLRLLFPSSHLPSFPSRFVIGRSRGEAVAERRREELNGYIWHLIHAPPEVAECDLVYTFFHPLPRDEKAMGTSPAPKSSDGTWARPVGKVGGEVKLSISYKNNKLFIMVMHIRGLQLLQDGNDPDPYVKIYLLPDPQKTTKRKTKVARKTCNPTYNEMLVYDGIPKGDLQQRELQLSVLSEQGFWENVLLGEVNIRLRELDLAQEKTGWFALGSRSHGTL
T4 sequence (O00329 whole entry): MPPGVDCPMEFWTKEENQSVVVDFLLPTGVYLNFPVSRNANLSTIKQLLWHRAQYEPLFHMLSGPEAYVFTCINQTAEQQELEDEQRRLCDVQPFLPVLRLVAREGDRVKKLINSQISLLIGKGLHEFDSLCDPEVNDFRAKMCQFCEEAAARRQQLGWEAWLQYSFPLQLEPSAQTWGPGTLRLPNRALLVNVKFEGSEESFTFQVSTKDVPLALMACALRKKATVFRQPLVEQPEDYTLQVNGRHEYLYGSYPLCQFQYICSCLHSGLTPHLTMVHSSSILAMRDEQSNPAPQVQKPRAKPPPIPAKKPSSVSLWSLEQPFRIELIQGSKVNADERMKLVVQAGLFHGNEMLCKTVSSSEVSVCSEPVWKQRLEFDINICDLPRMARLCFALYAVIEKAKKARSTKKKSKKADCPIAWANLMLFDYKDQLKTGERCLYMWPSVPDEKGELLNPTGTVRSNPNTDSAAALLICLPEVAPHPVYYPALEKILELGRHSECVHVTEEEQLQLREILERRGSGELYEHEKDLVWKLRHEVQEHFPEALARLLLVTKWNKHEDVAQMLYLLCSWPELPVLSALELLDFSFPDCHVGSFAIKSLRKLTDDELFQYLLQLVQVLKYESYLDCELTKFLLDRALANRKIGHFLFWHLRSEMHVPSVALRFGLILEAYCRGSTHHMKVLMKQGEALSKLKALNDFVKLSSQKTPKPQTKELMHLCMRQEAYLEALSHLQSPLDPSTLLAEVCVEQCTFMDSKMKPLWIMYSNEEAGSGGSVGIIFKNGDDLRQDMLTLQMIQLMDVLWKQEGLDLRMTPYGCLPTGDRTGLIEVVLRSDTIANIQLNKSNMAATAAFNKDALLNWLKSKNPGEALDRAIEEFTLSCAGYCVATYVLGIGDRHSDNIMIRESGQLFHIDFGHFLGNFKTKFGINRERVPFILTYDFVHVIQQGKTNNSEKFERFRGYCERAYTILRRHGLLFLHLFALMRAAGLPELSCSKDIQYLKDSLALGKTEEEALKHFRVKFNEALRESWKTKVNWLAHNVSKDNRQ
T4 sequence (P27986 whole entry partner): as the sequence (P27986 whole entry partner) above

CS(=O)(=O)c1ccc(-c2cnc3ccc(-c4cccc(S(C)(=O)=O)c4)nn23)cc1 [MMV652103]
IC50 ([1]; Fig 2C summary, MTT 48 h, read-out: IC50 ± SEM MDA-MB-231): 14.3 ± 1.03 µM
IC50 ([1]; MTT, 48 h, read-out: IC50 MDA-MB-231): 14.3 µM
IC50 ([2]; Fig 2C summary, MTT 48 h, read-out: IC50 ± SEM FG0): > 10 µM
IC50 ([2]; MTT, 48 h, exact IC50 not reached, predicted, read-out: IC50 FG0): > 10 µM
IC50 ([3]; MCF7, Fig 2C summary, MTT 48 h, read-out: IC50 ± SEM MCF7): 2.2 ± 1.15 µM
IC50 ([3]; MCF7, MTT, 48 h, read-out: Cytotoxicity assays (MTT) IC50 MCF7): 2.2 µM
IC50 ([3]; average of MCF7 and T47D, read-out: average IC50 in the ER+ cell lines MCF7 and T47D): 2.5 µM
SI IC50 MCF12A / IC50 MCF7 ([3]; selectivity index, MCF12A vs MCF7): 3.02
IC50 ([4]; Fig 2C summary, MTT 48 h, read-out: IC50 ± SEM T47D): 2.9 ± 1.1 µM
IC50 ([4]; MTT, 48 h, read-out: IC50 T47D): 2.9 µM
SI FG0 (T47D) ([4]; IC50 FG0 / IC50 T47D): > 2
remaining activity at 10 µM (PIK3C3): 24%
number of T47D cell colonies (T47D cells): dose-dependent reduction
remaining activity at 10 µM (PIK3CB/ PIK3R1): 19%
remaining activity at 10 µM (PI4K2B): 50%
effect on MCF7 cell cycle progression (MCF7 cells [5]): induced sub-G1 peaks and arrested cells in G1
remaining activity at 10 µM (PIK3CD/ PIK3R1): 3%
remaining activity at 10 µM (PIK3C2B): 31%
Solubility (DMSO) [6]: soluble in DMSO
Solubility (DMSO) ([6]; listed as 652103): Successful
levels of GSH (MCF7 cells [7]): significant decrease
